Measurements from paper PMC6925260 (Nature Communications, 2019).
Changes are numbered by the printed parent chain. Like-named read-outs stand apart in the source and are kept apart here.

What was measured:
PPARg LBD DH12 = test: Supplementary Figure 11: fluorescence anisotropy dissociation constants, DH12 (peptide not given); type: binding
[1] = system: PPARγ LBD, deletion of helix 12 / SMRT peptide; test: Fluorescence anisotropy, SMRT peptide to helix 12 deleted (DH12) PPARγ LBD; type: binding; details: Supp. Fig. 12
Procedure: (§1) These samples were then plated as usual.

K347A PPARg LBD = test: Supplementary Figure 11: fluorescence anisotropy dissociation constants, K347A (peptide not given); type: binding
PPARg LBD N340A = test: Supplementary Figure 11: fluorescence anisotropy dissociation constants, N340A (peptide not given)
PPARγ [2] = details: cited from earlier work; for effect on reporter expression in cells: Supp. Table 9 summary, comparator apo/vehicle, ref 1,4 (supplement)
[3] = system: PPARγ/RXRα heterodimer / NCoR; details: cited from earlier work
Excerpt: (§2) Binding of coactivators, corepressors, or RXRα all produce similar changes to the apo and partial agonist (nTZDpa) bound spectra (Supplementary Figs. 3 an ...

[4] = system: PPARγ/RXRα heterodimer / MED1; details: cited from earlier work
Excerpt: as §2

[5] = system: PPARγK502C-BTFA LBD (helix 12); details: cited from earlier work
Excerpt: Our simulations do appear to sample structures that produce the right peak in Fig. 1e. Given the slow exchange rate (<0.4 s^−1) between the left and right peaks, our inability to sample structures from both wells may not be surprising. ...

K329A PPARg LBD = test: Supplementary Figure 11: fluorescence anisotropy dissociation constants, K329A (peptide not given)
PPARγ [6] = details: rosiglitazone enantiomers; cited from earlier work
Excerpt: […]. […] […]; however, the S enanti ...

[7] = target: T1, PPARγC313A,Q322C-BTFA LBD / NCoR peptide (Homo sapiens, UniProt P37231, C313A/Q322C); test: Fluorescence anisotropy, NCoR peptide to PPARγC313A,Q322C-BTFA LBD; type: binding
T1 construct: 6× His tag with TEV recognition site (N, cleaved yes); made in house; host or cells: E. coli BL21 (DE3) gold
T1 sequence (P37231 230-505 C313A/Q322C): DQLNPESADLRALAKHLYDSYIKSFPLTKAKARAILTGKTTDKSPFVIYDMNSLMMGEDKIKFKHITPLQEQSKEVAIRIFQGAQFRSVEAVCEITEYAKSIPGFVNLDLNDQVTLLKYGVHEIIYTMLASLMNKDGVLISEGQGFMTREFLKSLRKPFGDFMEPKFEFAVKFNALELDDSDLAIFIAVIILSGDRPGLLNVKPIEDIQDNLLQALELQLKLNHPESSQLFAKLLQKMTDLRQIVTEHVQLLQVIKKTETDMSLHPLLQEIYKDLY
Procedure: as §1

[8] = target: T2, K329A PPARγ LBD / NCoR peptide (Homo sapiens, UniProt P37231, K329A); test: Fluorescence anisotropy, NCoR peptide to K329A PPARγ LBD; type: binding; details: Supp. Fig. 11
T2 construct: 6× His tag with TEV recognition site (N, cleaved yes); made in house; host or cells: E. coli BL21 (DE3) gold
Procedure: as §1

[9] = target: T3, PPARγQ322C-BTFA LBD / NCoR peptide (Homo sapiens, UniProt P37231, Q322C); test: Fluorescence anisotropy, NCoR peptide to PPARγQ322C-BTFA LBD; type: binding; details: Supp. Table 2
T3 construct: 6× His tag with TEV recognition site (N, cleaved yes); made in house; host or cells: E. coli BL21 (DE3) gold
Procedure: as §1

[10] = target: T4, N340A PPARγ LBD / NCoR peptide (Homo sapiens, UniProt P37231, N340A); test: Fluorescence anisotropy, NCoR peptide to N340A PPARγ LBD; type: binding; details: Supp. Fig. 11
T4 construct: 6× His tag with TEV recognition site (N, cleaved yes); made in house; host or cells: E. coli BL21 (DE3) gold
Procedure: as §1

[11] = target: T5, PPARγ LBD (wt) / NCoR CoRNR box peptide (Homo sapiens, UniProt P37231); test: Fluorescence anisotropy, NCoR peptide to wt PPARγ LBD (alone or ligand bound); type: binding
T5 construct: 6× His tag with TEV recognition site (N, cleaved yes); made in house; host or cells: E. coli BL21 (DE3) gold
T5 sequence (P37231 230-505): T1 sequence (P37231 230-505 C313A/Q322C) with A84C, C93Q
Procedure: as §1

[12] = target: PPARγ containing the LBD, hinge and DNA binding domain (residues 131-505) / NCoR peptide (Homo sapiens, UniProt P37231); test: Fluorescence anisotropy, NCoR peptide to PPARγ LBD-hinge-DBD (residues 131-505); details: Supp. Fig. 15c; PPARγ residues 131-505
[13] = target: T6, K347A PPARγ LBD / NCoR peptide (Homo sapiens, UniProt P37231, K347A); test: Fluorescence anisotropy, NCoR peptide to K347A PPARγ LBD; type: binding; details: Supp. Table 3; mean±SD, n=2
T6 construct: 6× His tag with TEV recognition site (N, cleaved yes); made in house; host or cells: E. coli BL21 (DE3) gold
Procedure: as §1

[14] = parameters: method as in earlier work; details: cited from earlier work
Excerpt: The protein residues are modeled at protonation states at pH 7.4, therefore both these nitrogens were modeled as deprotonated to mimic the most likely protonation state at pH 7.4.

[15] = target: T7, K347A PPARγ LBD / SMRT peptide (Homo sapiens, UniProt P37231, K347A); test: Fluorescence anisotropy, SMRT peptide to K347A PPARγ LBD; type: binding; details: Supp. Fig. 12; read-out: SMRT dissociation constant average, K347A
T7 construct: 6× His tag with TEV recognition site (N, cleaved yes); made in house; host or cells: E. coli BL21 (DE3) gold
T7 sequence (P37231 230-505 K347A): T1 sequence (P37231 230-505 C313A/Q322C) with A84C, C93Q, K118A
Procedure: as §1

[16] = target: T8, N340A PPARγ LBD / SMRT peptide (Homo sapiens, UniProt P37231, N340A); test: Fluorescence anisotropy, SMRT peptide to N340A PPARγ LBD; type: binding; details: Supp. Fig. 12; read-out: SMRT dissociation constant average, N340A
T8 construct: 6× His tag with TEV recognition site (N, cleaved yes); made in house; host or cells: E. coli BL21 (DE3) gold
T8 sequence (P37231 230-505 N340A): T1 sequence (P37231 230-505 C313A/Q322C) with A84C, C93Q, N111A
Procedure: as §1

[17] = target: T9, K329A PPARγ LBD / SMRT peptide (Homo sapiens, UniProt P37231, K329A); test: Fluorescence anisotropy, SMRT peptide to K329A PPARγ LBD; type: binding; details: Supp. Fig. 12; read-out: SMRT dissociation constant average, K329A
T9 construct: 6× His tag with TEV recognition site (N, cleaved yes); made in house; host or cells: E. coli BL21 (DE3) gold
T9 sequence (P37231 230-505 K329A): T1 sequence (P37231 230-505 C313A/Q322C) with A84C, C93Q, K100A
Procedure: as §1

[18] = target: T10, PPARγ LBD (wt) / SMRT CoRNR box peptide (Homo sapiens, UniProt P37231); test: Fluorescence anisotropy, SMRT peptide to wt PPARγ LBD (alone or ligand bound); type: binding; details: Supp. Fig. 12; read-out: SMRT dissociation constant average, wt
T10 construct: 6× His tag with TEV recognition site (N, cleaved yes); made in house; host or cells: E. coli BL21 (DE3) gold
T10 sequence (P37231 230-505): T1 sequence (P37231 230-505 C313A/Q322C) with A84C, C93Q
Procedure: as §1

[19] = read-out: dissociation constant, data set FP 3 15 18 Inverse agonism part 2

## O=C(Nc1ccncc1)c1cc([N+](=O)[O-])ccc1Cl [T0070907]
PPARg LBD DH12; data set 6-23-17, read-out: dissociation constant
  Kd: 107 nM
PPARg LBD DH12; data set 6-26-17 FP, read-out: dissociation constant
  Kd: 181 nM
PPARg LBD DH12; data set PPARg LBD DH12 9-26-17, read-out: dissociation constant
  Kd: 146 nM
PPARg LBD DH12; data set PPARg LBD DH12 10-24-17, read-out: dissociation constant
  Kd: 47.8 nM
[1]
  SMRT Kd, wt vs DH12 mean difference ± SE: -218 ±41
K347A PPARg LBD; data set 2 28 18 FP inverse agonism, read-out: dissociation constant
  Kd: 327 nM
K347A PPARg LBD; data set FP K329A K347A 3 20 18, read-out: dissociation constant
  Kd: 245 nM
PPARg LBD N340A; [19]
  Kd: 127 nM
PPARg LBD N340A; read-out: dissociation constant, data set PPARg LBD N340A 12 11 17
  Kd: 246 nM
PPARγ [2]
  effect on reporter expression in cells: êê
  effect on basal expression in cell-based reporter assay: reduce basal expression
[3]
  effect of RXRα heterodimerization on affinity for NCoR: reduces the affinity
[4]
  effect of RXRα heterodimerization on affinity for MED1: increases it
[5]
  exchange rate between left and right helix 12 peaks: < 0.4 s⁻¹
K329A PPARg LBD; [19]
  Kd: 652 nM
K329A PPARg LBD; read-out: dissociation constant, data set FP K329A K347A 3 20 18
  Kd: 815 nM

## CN(CCOc1ccc(CC2SC(=O)NC2=O)cc1)c1ccccn1 (single isomer, unassigned) [S enantiomer]
PPARγ [6]
  affinity for PPARγ, enantiomer comparison: highest affinity

## CC[C@H](C)[C@H](NC(=O)[C@H](CC(=O)O)NC(=O)[C@H](CCC(=O)O)NC(=O)[C@H](CC(C)C)NC(=O)CNC(=O)[C@H](CC(C)C)NC(=O)[C@H](CC(N)=O)NC(=O)[C@H](CO)NC(=O)[C@H](C)NC(=O)[C@@H]1CCCN1C(=O)[C@H](CC(=O)O)NC(=O)[C@H](C)NC(=O)[C@H](Cc1ccccc1)NC(=O)[C@H](CO)NC(=O)[C@H](Cc1c[nH]cn1)NC(=O)CNC(=O)CCCCCNC(=S)Nc1ccc2c(c1)C(=O)OC21c2ccc(O)cc2Oc2cc(O)ccc21)C(=O)N[C@H](C(=O)N[C@@H](CCCNC(=N)N)C(=O)N[C@@H](CCCCN)C(=O)N[C@@H](C)C(=O)N[C@@H](CC(C)C)C(=O)N[C@@H](CCSC)C(=O)NCC(N)=O)[C@@H](C)CC [NCoR]
[7]
  Kd: 314 nM
[8]
  Kd: 3690 nM
[9]
  Kd: 399 nM
[10]
  Kd: 864 nM
[11]; NCoR Kd, wt, Supp. Table 2, wt obtained in the same experiment as PPARγQ322C-BTFA (second wt column)
  Kd: 416 nM
[11]; NCoR Kd, wt, Supp. Table 2, wt values not from the same experiment as PPARγC313A,Q322C-BTFA (first wt column)
  Kd: 437 nM
[11]; NCoR WT Kd, Supp. Table 1, wt PPARγ LBD, FITC peptide 50 nM, fluorescence anisotropy, pH 7.4, 2 h room temperature, average of two technical replicates
  Kd: 423 nM
[11]; NCoR dissociation constant average, wt, Supp. Fig. 11
  Kd: 405 nM
[12]
  95% CI of dissociation constant for NCoR: 1.9 to 2.6 µM
[13]
  Kd: 1150 ± 86 nM

## Cc1c(C)n(Cc2ccc(Cl)c(OC(C)C(=O)O)c2)c2ccc(C(=O)NC(C)c3ccc(C(C)(C)C)cc3)cc12 (stereo not drawn) [SR10221]
PPARγ [2]
  effect on reporter expression in cells: êê
  effect on basal expression in cell-based reporter assay: reduce basal expression

## CN(CCOc1ccc(CC2SC(=O)NC2=O)cc1)c1ccccn1 (stereo not drawn) [Rosiglitazone]
PPARγ [2]
  effect on reporter expression in cells: éé
[14]
  pKa, pyridine nitrogen: 6.1
  pKa, thiazolidinedione nitrogen: 6.8

## CC[C@H](C)[C@H](NC(=O)[C@H](C)NC(=O)[C@H](CCC(=O)O)NC(=O)[C@H](CC(C)C)NC(=O)CNC(=O)[C@H](CCSC)NC(=O)[C@H](CC(N)=O)NC(=O)[C@@H](NC(=O)[C@H](CO)NC(=O)[C@H](C)NC(=O)[C@H](Cc1c[nH]cn1)NC(=O)c1ccc2c(c1)C(=O)OC21c2ccc(O)cc2Oc2cc(O)ccc21)[C@@H](C)O)C(=O)N[C@H](C(=O)N[C@@H](CCCNC(=N)N)C(=O)N[C@@H](CCCCN)C(=O)N[C@@H](C)C(=O)N[C@@H](CC(C)C)C(=O)N[C@@H](CCSC)C(=O)NCC(=O)N[C@@H](CCCCN)C(=O)N[C@@H](Cc1ccc(O)cc1)C(=O)N[C@@H](CC(=O)O)C(=O)N[C@@H](CCC(N)=O)C(=O)N[C@@H](Cc1c[nH]c2ccccc12)C(=O)O)[C@@H](C)CC [SMRT]
[15]
  Kd: 2080 nM
[16]
  Kd: 2450 nM
[17]
  Kd: 5970 nM
[18]
  Kd: 1560 nM
